Eleven compounds from patent US12617837B2, “Composition for use in treatment of allergic diseases” (UNIVERSITY OF TSUKUBA, priority 2019, dated 2026) can be followed below.

One assay has as its target T1, Clec10a-Fc (Mus musculus, UniProt P49300).
T1 construct: cloning the extracellular region of mouse Clec10a into a pME18S expression vector; made in house; host or cells: HEK293T cells
T1 sequence (P49300 57-304 limits assumed): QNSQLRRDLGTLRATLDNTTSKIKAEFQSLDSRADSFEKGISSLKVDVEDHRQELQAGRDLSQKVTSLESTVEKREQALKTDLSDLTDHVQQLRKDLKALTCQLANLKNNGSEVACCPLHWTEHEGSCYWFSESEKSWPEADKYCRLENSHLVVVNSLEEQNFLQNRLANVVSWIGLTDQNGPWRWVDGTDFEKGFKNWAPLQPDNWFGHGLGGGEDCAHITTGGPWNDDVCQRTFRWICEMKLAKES
Description: Sugar conjugate (glycan) microarray analysis of Clec10a-Fc (Table 7). The conditions noted are these: for Signal value, Clec10a-Fc: glycan microarray probed with Clec10a-Fc; for Signal value, Clec10a-Fc with EDTA: glycan microarray probed with Clec10a-Fc with EDTA. In kind it is binding. As to the method:
A sugar conjugate microarray containing 98 sugar conjugates (Table 3) was prepared according to a known method using a non-contact microarray printing robot (MicroSys 4000; Genomic Solutions).

The test system of another assay is human IgG1. Description: Glycan microarray probed with human IgG1 (control of Table 7). The class given is binding.

Each structure is given as a SMILES string.

Consider `CC(=O)N[C@@H]1[C@@H](O)[C@H](O[C@@H]2O[C@H](CO)[C@H](O)[C@H](O[C@]3(C(=O)O)C[C@H](O)[C@@H](NC(C)=O)[C@H]([C@H](O)[C@H](O)CO)O3)[C@H]2O)[C@@H](CO)O[C@H]1O` [3′SLN], for which, on Clec10a-Fc, the “Signal value, Clec10a-Fc” value is recorded as 7 and the “Signal value, Clec10a-Fc with EDTA” value came to 0. Moreover, the “Signal value, human IgG1” value in the assay on human IgG1 turned out to be 0.
Consider `CC(=O)N[C@H]1[C@H]([C@H](O)[C@H](O)CO)O[C@@](O[C@H]2[C@@H](O)[C@@H](CO)O[C@@H](O[C@H]3[C@H](O)[C@@H](O)[C@H](O)O[C@@H]3CO)[C@@H]2O)(C(=O)O)C[C@@H]1O` [3′SL], for which, at Clec10a-Fc, the “Signal value, Clec10a-Fc” value was determined as 5 and the “Signal value, Clec10a-Fc with EDTA” value is listed as 0. Moreover, the “Signal value, human IgG1” value with human IgG1 stood at 0.
Consider `CC(=O)N[C@@H]1[C@@H](O[C@@H]2O[C@H](CO)[C@H](O)[C@H](O[C@]3(C(=O)O)C[C@H](O)[C@@H](NC(C)=O)[C@H]([C@H](O)[C@H](O)CO)O3)[C@H]2O)[C@H](O)[C@@H](CO)O[C@H]1O` [3′SiaLec], for which, at Clec10a-Fc, the “Signal value, Clec10a-Fc” value was determined as 4 and the “Signal value, Clec10a-Fc with EDTA” value amounted to 0. Moreover, the “Signal value, human IgG1” value in the assay on human IgG1 came to 0.
In the case of `CC(=O)N[C@H]1[C@H]([C@H](O)[C@H](O)CO)O[C@@](OC[C@H]2O[C@@H](O[C@H]3[C@H](O)[C@@H](O)[C@H](O)O[C@@H]3CO)[C@H](O)[C@@H](O)[C@H]2O)(C(=O)O)C[C@@H]1O` [6′SL], on Clec10a-Fc, the “Signal value, Clec10a-Fc” value was 1 and the “Signal value, Clec10a-Fc with EDTA” value was determined as 0. In the assay with human IgG1, the “Signal value, human IgG1” value turned out to be 0.
For `CC(=O)N[C@H]1[C@@H](O[C@@H]2[C@@H](O)[C@H](O)O[C@H](CO)[C@@H]2O)O[C@H](CO)[C@H](O)[C@@H]1O` [A-di], at Clec10a-Fc, the “Signal value, Clec10a-Fc” value was 1137 and the “Signal value, Clec10a-Fc with EDTA” value was determined as 0. Further, the “Signal value, human IgG1” value in the assay on human IgG1 amounted to 0.
On to `CC(=O)N[C@@H]1[C@@H](O)[C@H](O[C@@H]2O[C@H](CO)[C@H](O)[C@H](O[C@H]3O[C@H](CO)[C@H](O)[C@H](O)[C@H]3NC(C)=O)[C@H]2O[C@@H]2O[C@@H](C)[C@@H](O)[C@@H](O)[C@@H]2O)[C@@H](CO)O[C@H]1O` [A], for which, on Clec10a-Fc, the “Signal value, Clec10a-Fc” value came to 0 and the “Signal value, Clec10a-Fc with EDTA” value is on record as 0. Also, in the assay with human IgG1, the “Signal value, human IgG1” value turned out to be 0.
With `CC(=O)N[C@@H]1[C@@H](O)[C@H](O)[C@@H](CO)O[C@H]1O` [BGlcNAc], on Clec10a-Fc, the “Signal value, Clec10a-Fc” value is 0 and the “Signal value, Clec10a-Fc with EDTA” value is recorded as 0. Also, the “Signal value, human IgG1” value in the assay with human IgG1 stood at 205.
On to `CC(=O)N[C@@H]1[C@@H](O)[C@H](O[C@@H]2O[C@H](CO)[C@H](O)[C@H](O[C@H]3O[C@H](CO)[C@H](O)[C@H](O)[C@H]3O)[C@H]2O[C@@H]2O[C@@H](C)[C@@H](O)[C@@H](O)[C@@H]2O)[C@@H](CO)O[C@H]1O` [B], for which, at Clec10a-Fc, the “Signal value, Clec10a-Fc” value is given as 0 and the “Signal value, Clec10a-Fc with EDTA” value is reported as 0. The “Signal value, human IgG1” value with human IgG1 is recorded as 0.
For the compound `CC(=O)N[C@@H]1[C@@H](O[C@@H]2O[C@H](CO)[C@H](O)[C@H](O)[C@H]2O)[C@@H](O)[C@@H](CO[C@@H]2O[C@H](CO)[C@@H](O)[C@H](O)[C@H]2NC(C)=O)O[C@@H]1O` [Core2], at Clec10a-Fc, the “Signal value, Clec10a-Fc” value came to 4824 and the “Signal value, Clec10a-Fc with EDTA” value is on record as 0. The “Signal value, human IgG1” value with human IgG1 is on record as 0.
As to `CC(=O)N[C@@H]1[C@@H](O[C@@H]2O[C@H](CO)[C@@H](O)[C@H](O)[C@H]2NC(C)=O)[C@@H](O)[C@@H](CO)O[C@@H]1O` [Core3], at Clec10a-Fc, the “Signal value, Clec10a-Fc” value stood at 0 and the “Signal value, Clec10a-Fc with EDTA” value is given as 0. The “Signal value, human IgG1” value in the assay on human IgG1 stood at 0.
On to `CC(=O)N[C@@H]1[C@@H](O[C@@H]2O[C@H](CO)[C@@H](O)[C@H](O)[C@H]2NC(C)=O)[C@@H](O)[C@@H](CO[C@@H]2O[C@H](CO)[C@@H](O)[C@H](O)[C@H]2NC(C)=O)O[C@@H]1O` [Core4], for which, on Clec10a-Fc, the “Signal value, Clec10a-Fc” value was determined as 0 and the “Signal value, Clec10a-Fc with EDTA” value turned out to be 0. Also, the “Signal value, human IgG1” value in the assay with human IgG1 is 0.
